Source: the NIST ThermoML archive (doi:10.1021/je900586f)

Key:
[1] = refractive index (Na D-line) (dimensionless); xn = mol fraction of the nth substance listed; conditions: 298.15 K, 101 kPa, Liquid, Standard Abbe refractometry
[2] = xn = mol fraction of the nth substance listed; conditions: 298.15 K, 101 kPa, Liquid, Vibrating tube method
[3] = for mass density: 298.15 K, 101.33 kPa, Liquid, Vibrating tube method; for Normal melting temperature: Crystal
[4] = refractive index (Na D-line) (dimensionless); conditions: 298.15 K; 101.33 kPa; Liquid; Standard Abbe refractometry

CCCCCCCCN(CCCCCCCC)CCCCCCCC [trioctylamine] + CCCCCCCCO
Conditions	mass density, [2] [kg/m3]	refractive index, [1]
x1 = 0.0497	820.8	1.4311
x1 = 0.1	819.7	1.433
x1 = 0.2	817.8	1.4359
x1 = 0.3004	816	1.4389
x1 = 0.4001	814.5	1.4415
x1 = 0.4997	813.1	1.4432
x1 = 0.6012	811.9	1.4445
x1 = 0.701	810.7	1.4453
x1 = 0.8002	809.7	1.4461
x1 = 0.8962	808.7	1.447
x1 = 0.9496	808.1	1.4474

CCCCCCCCCCO [decan-1-ol] + CCCCCCCCO
[1]
Conditions	refractive index
x2 = 0.05	1.435
x2 = 0.0996	1.4346
x2 = 0.1996	1.434
x2 = 0.2997	1.4333
x2 = 0.4005	1.4325
x2 = 0.5006	1.4318
x2 = 0.6005	1.431
x2 = 0.7006	1.4301
x2 = 0.8002	1.4293
x2 = 0.9	1.4284
x2 = 0.9507	1.4279

CCCCCCCCN(CCCCCCCC)CCCCCCCC [trioctylamine]
Conditions	Normal melting temperature [°C]	mass density [kg/m3]	refractive index
[3]	-34.42	807.46	–
[4]	–	–	1.44758

CCCCCCCCO [octan-1-ol]
Conditions	Normal melting temperature [°C]	mass density [kg/m3]	refractive index
[3]	-15.30	821.76	–
[4]	–	–	1.42754

CCCCCCCCCCO [decan-1-ol]
Conditions	Normal melting temperature [°C]	mass density [kg/m3]	refractive index
[3]	7.04	826.59	–
[4]	–	–	1.43541

CCCCCCCCN(CCCCCCCC)CCCCCCCC [trioctylamine] + CCCCCCCCCCO
Conditions	mass density, [2] [kg/m3]	refractive index, [1]
x1 = 0.0504	825.4	1.437
x1 = 0.0998	824	1.4384
x1 = 0.2002	821.6	1.4406
x1 = 0.3	819.3	1.4424
x1 = 0.4002	817.3	1.4437
x1 = 0.501	815.4	1.4448
x1 = 0.6008	813.8	1.4457
x1 = 0.7007	812.3	1.4464
x1 = 0.8014	810.7	1.4469
x1 = 0.9022	809.2	1.4473
x1 = 0.9522	808.6	1.4475
